Test results reported in patent publication US20200316064A1, “CYCLIN-DEPENDENT KINASE 2 BIOMARKERS AND USES THEREOF” (Incyte Corporation, priority 2019, published 2020).

Molecular target: T1, CDK2/Cyclin E1 (Homo sapiens, UniProt P24941)
T1 construct: utilize full-length human CDK2 co-expressed as N-terminal GST-tagged protein; GST (N); purchased Carna 04-165; host or cells: baculovirus expression system
Experiment: CDK2/Cyclin E1 HTRF enzyme activity assay (Example A)
Type: biochemical
Conditions: 1 mM ATP
Method: CDK2/Cyclin E1 enzyme activity assays utilize full-length human CDK2 co-expressed as N-terminal GST-tagged protein with FLAG-Cyclin E1 in a baculovirus expression system (Carna Product Number 04-165). Assays are conducted in white 384-well polystyrene plates in a final reaction volume of 8 μL. CDK2/Cyclin E1 (0.25 nM) is incubated with compounds (40 nL serially diluted in DMSO) in the presence of ATP (50 μM or 1 mM) and 50 nM ULight™-labeled eIF4E-binding protein 1 (THR37/46) peptide (PerkinElmer) in assay buffer (containing 50 mM HEPES pH 7.5, 1 mM EGTA, 10 mM MgC2, 2 mM DTT, 0.05 mg/mL BSA, and 0.01% Tween 20) for 60 minutes at room temperature. The reactions are stopped by the addition of EDTA and Europium-labeled anti-phospho-4E-BP1 antibody (PerkinElmer), for a final concentration of 15 mM and 1.5 nM, respectively. HTRF signals are read after 1 hour at room temperature on a PHERAstar FS plate reader (BMG Labtech). Data is analyzed with IDBS XLFit and GraphPad Prism 5.0 software using a three or four parameter dose response curve to determine IC50 for each compound.

Compound	IC50 [nM]
O=C1N(c2cc3c(cc2Cl)CNCC3)c2nc(NC3CCN(S(=O)(=O)c4ncc[nH]4)CC3)ncc2C12CC2 [Example B18, 2′-((1-((1H-imidazol-2-yl)sulfonyl)piperidin-4-yl)amino)-7′-(7-chloro-1,2,3,4-tetrahydroisoquinolin-6-yl)spiro[cyclopropane-1,5′-pyrrolo[2,3-d]pyrimidin]-6′(7′H)-one]	≤ 50
CCN1CC(n2cc(S(=O)(=O)N3CCC(Nc4ncc5c(n4)N([C@@H](C)C4CC4)C(=O)C54CC4)CC3)cn2)C1 [Example B16, (S)-7′-(1-cyclopropylethyl)-2′-((1-((1-(1-ethylazetidin-3-yl)-1H-pyrazol-4-yl)sulfonyl)piperidin-4-yl)amino)spiro[cyclopropane-1,5′-pyrrolo[2,3-d]pyrimidin]-6′(7′H)-one]	≤ 50
Cc1c(N2C(=O)C3(CC3)c3cnc(NC4CCN(S(C)(=O)=O)CC4)nc32)cnn1C [Example B11, 7′-(1,5-dimethyl-1H-pyrazol-4-yl)-2′-((1-(methylsulfonyl)piperidin-4-yl)amino)spiro[cyclopropane-1,5′-pyrrolo[2,3-d]pyrimidin]-6′(7H)-one]	50 to 100
CC1CC(Nc2ncc3c(n2)N(C2CCCC2)C(=O)C32CC2)CCN1S(C)(=O)=O (stereo not shown) [Example B1, 7′-cyclopentyl-2′-((2-methyl-1-(methylsulfonyl)piperidin-4-yl)amino)spiro[cyclopropane-1,5′-pyrrolo[2,3-d]pyrimidin]-6′(7′H)-one]	100 to 500
CCC(C(F)F)N1C(=O)C2(CC2)c2cnc(NC3CCN(S(C)(=O)=O)CC3)nc21 (racemic) [Example B10, 7′-(1,1-difluorobutane-2-yl)-2′-((1-(methylsulfonyl)piperidin-4-yl)amino)spiro[cyclopropane-1,5′-pyrrolo[2,3-d]pyrimidin]-6′(7′H)-one]	≤ 50
O=C1N(C2CCCC2)c2nc(NC3CCN(S(=O)(=O)c4ccc(Cl)cc4)CC3)ncc2C12CC2 [Example B6, 2′-((1-((4-chlorophenyl)sulfonyl)piperidin-4-yl)amino)-7′-cyclopentylspiro[cyclopropane-1,5′-pyrrolo[2,3-d]pyrimidin]-6′(7′H)-one]	50 to 100
CC1CCCC1N1C(=O)C2(CC2)c2cnc(NC3CCN(S(C)(=O)=O)CC3)nc21 (mixture of isomers) [Example B8, 7′-(2-methylcyclopentyl)-2′-((1-(methylsulfonyl)piperidin-4-yl)amino)spiro[cyclopropane-1,5′-pyrrolo[2,3-d]pyrimidin]-6′(7′H)-one]	≤ 50
O=C1N([C@@H]2CCC[C@@H](O)C2)c2nc(NC3CCN(S(=O)(=O)c4cccc(N5CCC5)n4)CC3)ncc2C12CC2 [Example B13, 2′-((1-((6-(azetidin-1-yl)pyridin-2-yl)sulfonyl)piperidin-4-yl)amino)-7′-((1R,3R)-3-hydroxycyclohexyl)spiro[cyclopropane-1,5′-pyrrolo[2,3-d]pyrimidin]-6′(7′H)-one]	≤ 50
CC1(C)Cc2cnc(Nc3ccc(S(N)(=O)=O)cc3)nc2N(C2CCCC2)C1=O [Example A1, 4-((8-cyclopentyl-6,6-dimethyl-7-oxo-5,6,7,8-tetrahydropyrido[2,3-d]pyrimidin-2-yl)amino)benzenesulfonamide]	≤ 50
Cn1cc(S(=O)(=O)N2CCC(Nc3ncc4c(n3)N(C3CCCC3)C(=O)C43CC3)CC2)cn1 [Example B7, 7′-cyclopentyl-2′-((1-((1-methyl-1H-pyrazol-4-yl)sulfonyl)piperidin-4-yl)amino)spiro[cyclopropane-1,5′-pyrrolo[2,3-d]pyrimidin]-6′(7′H)-one]	≤ 50
Cc1ccccc1N1C(=O)C2(CC2)c2cnc(NC3CCN(S(C)(=O)=O)CC3)nc21 [Example B9, 2′-((1-(methylsulfonyl)piperidin-4-yl)amino)-7′-(o-tolyl)spiro[cyclopropane-1,5′-pyrrolo[2,3-d]pyrimidin]-6′(7′H)-one]	100 to 500
Cn1cc(S(=O)(=O)N2CCC(Nc3ncc4c(n3)N([C@@H]3CCC[C@@H](O)C3)C(=O)C43CC3)CC2)cn1 [Example B12, 7′-((1R,3R)-3-hydroxycyclohexyl)-2′-((1-((1-methyl-1H-pyrazol-4-yl)sulfonyl)piperidin-4-yl)amino)spiro[cyclopropane-1,5′-pyrrolo[2,3-d]pyrimidin]-6′(7′H)-one]	≤ 50
C[C@@]1(O)CCC[C@H]1N1C(=O)C2(CC2)c2cnc(NC3CCN(S(=O)(=O)c4ncc[nH]4)CC3)nc21 (relative stereo) [Example B17, 2′-((1-((1H-imidazol-2-yl)sulfonyl)piperidin-4-yl)amino)-7′-((trans)-2-hydroxy-2-methylcyclopentyl)spiro[cyclopropane-1,5′-pyrrolo[2,3-d]pyrimidin]-6′(7′H)-one]	≤ 50
CC1(C)Cc2cnc(NC3CCN(S(C)(=O)=O)CC3)nc2N(C2CCOC2)C1=O (racemic) [Example A6, 6,6-dimethyl-2-((1-(methylsulfonyl)piperidin-4-yl)amino)-8-(tetrahydrofuran-3-yl)-5,8-dihydropyrido[2,3-d]pyrimidin-7(6H)-one]	100 to 500
O=C1N(C2CCCC2)c2nc(NC3CCN(S(=O)(=O)c4cccnc4)CC3)ncc2C12CC2 [Example B5, 7′-cyclopentyl-2′-((1-(pyridin-3-ylsulfonyl)piperidin-4-yl)amino)spiro[cyclopropane-1,5′-pyrrolo[2,3-d]pyrimidin]-6′(7′H)-one]	≤ 50
Cn1nccc1CN1C(=O)C(C)(C)Cc2cnc(NC3CCN(S(C)(=O)=O)CC3)nc21 [Example A5, 6,6-dimethyl-8-((1-methyl-1H-pyrazol-5-yl)methyl)-2-((1-(methylsulfonyl)piperidin-4-yl)amino)-5,8-dihydropyrido[2,3-d]pyrimidin-7(6H)-one]	100 to 500
CC1(C)Cc2cnc(NC3CCN(S(C)(=O)=O)CC3)nc2N(c2ccccc2)C1=O [Example A3, 6,6-dimethyl-2-((1-(methylsulfonyl)piperidin-4-yl)amino)-8-phenyl-5,8-dihydropyrido[2,3-d]pyrimidin-7(6H)-one]	100 to 500
C[C@@H](C1CC1)N1C(=O)C2(CC2)c2cnc(NC3CCN(S(=O)(=O)c4ncc[nH]4)CC3)nc21 [Example B14, (S)-2′-((1-((1H-imidazol-2-yl)sulfonyl)piperidin-4-yl)amino)-7′-(1-cyclopropylethyl)spiro[cyclopropane-1,5′-pyrrolo[2,3-d]pyrimidin]-6′(7′H)-one]	≤ 50
CC1(C)Cc2cnc(NC3CCN(S(C)(=O)=O)CC3)nc2N(C2CCCC2)C1=O [Example A2, 8-cyclopentyl-6,6-dimethyl-2-((1-(methylsulfonyl)piperidin-4-yl)amino)-5,8-dihydropyrido[2,3-d]pyrimidin-7(6H)-one]	≤ 50
CCn1cnc(S(=O)(=O)N2CCC(Nc3ncc4c(n3)N(c3cc(F)ccc3Cl)C(=O)C43CC3)CC2)c1 [Example B19, 7′-(2-chloro-5-fluorophenyl)-2′-((1-((1-ethyl-1H-imidazol-4-yl)sulfonyl)piperidin-4-yl)amino)spiro[cyclopropane-1,5′-pyrrolo[2,3-d]pyrimidin]-6′(7′H)-one]	≤ 50
C[C@@H](C1CC1)N1C(=O)C2(CC2)c2cnc(NC3CCN(S(=O)(=O)c4ccc(=O)[nH]c4)CC3)nc21 [Example B15, (S)-7′-(1-cyclopropylethyl)-2′-((1-((6-oxo-1,6-dihydropyridin-3-yl)sulfonyl)piperidin-4-yl)amino)spiro[cyclopropane-1,5′-pyrrolo[2,3-d]pyrimidin]-6′(7′H)-one]	≤ 50
O=C1N(C2CCCC2)c2nc(NC3CCN(S(=O)(=O)C4CC4)CC3)ncc2C12CC2 [Example B3, 7′-cyclopentyl-2′-((1-(cyclopropylsulfonyl)piperidin-4-yl)amino)spiro[cyclopropane-1,5′-pyrrolo[2,3-d]pyrimidin]-6′(7′H)-one]	≤ 50
CS(=O)(=O)N1CCC(Nc2ncc3c(n2)N(C2CCCC2)C(=O)C32CC2)CC1 [Example B2, 7′-cyclopentyl-2′-((1-(methylsulfonyl)piperidin-4-yl)amino)spiro[cyclopropane-1,5′-pyrrolo[2,3-d]pyrimidin]-6′(7′H)-one]	100 to 500
O=C1N(C2CCCC2)c2nc(NC3CCN(S(=O)(=O)C4CCOCC4)CC3)ncc2C12CC2 [Example B4, 7′-cyclopentyl-2′-((1-((tetrahydro-2H-pyran-4-yl)sulfonyl)piperidin-4-yl)amino)spiro[cyclopropane-1,5′-pyrrolo[2,3-d]pyrimidin]-6′(7′H)-one]	100 to 500
CCC(C(F)F)N1C(=O)C(C)(C)Cc2cnc(NC3CCN(S(C)(=O)=O)CC3)nc21 (racemic) [Example A4, 8-(1,1-difluorobutane-2-yl)-6,6-dimethyl-2-((1-(methylsulfonyl)piperidin-4-yl)amino)-5,8-dihydropyrido[2,3-d]pyrimidin-7(6H)-one]	50 to 100
